# From the supplement of paper PMC10307832
# Tests used:
# Assay in all cases: relative viability (nuclei count vs DMSO), 5 days (fraction); higher = more cells survive
# HOP-62 = system: HOP-62
# How it was run: (§1)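 Relative viability is defined as nuclei in treated wells over nuclei in vehicle wells. Duplicate plates were run and medians reported. Lung cancer cell lines in 1536-well plates were dosed by pin tool one day after seeding, with one drug or with a fixed anchor-drug dose plus five library-drug doses (not always all listed) in √10 steps, and nuclei were counted after 5 days.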
# CAL-12T = system: CAL-12T
# How it was run: as §1
# NCI-H1755 = system: NCI-H1755
# How it was run: as §1
# NCI-H1651 = system: NCI-H1651
# How it was run: as §1
# 201T = system: 201T
# How it was run: as §1
# NCI-H2087 = system: NCI-H2087
# How it was run: as §1
# EMC-BAC-2 = system: EMC-BAC-2
# How it was run: as §1
# LK-2 = system: LK-2
# How it was run: as §1
# NCI-H3122 = system: NCI-H3122
# How it was run: as §1
# NCI-H2126 = system: NCI-H2126
# How it was run: as §1
# PC-14 = system: PC-14
# How it was run: as §1
# LXF-289 = system: LXF-289
# How it was run: as §1
# ABC-1 = system: ABC-1
# How it was run: as §1
# NCI-H647 = system: NCI-H647
# How it was run: as §1
# NCI-H1734 = system: NCI-H1734
# How it was run: as §1
# NCI-H441 = system: NCI-H441
# How it was run: as §1
# NCI-H322M = system: NCI-H322M
# How it was run: as §1
# SK-MES-1 = system: SK-MES-1
# How it was run: as §1
# H3255 = system: H3255
# How it was run: as §1
# ChaGo-K-1 = system: ChaGo-K-1
# How it was run: as §1
# NCI-H2009 = system: NCI-H2009
# How it was run: as §1
# NCI-H2170 = system: NCI-H2170
# How it was run: as §1
# NCI-H596 = system: NCI-H596
# How it was run: as §1
compound,measurement,setting,value
O=C(O)CCCCC(CCSCc1ccccc1)SCc1ccccc1 (centres undefined) [CPI-613] + N=C(N)NC(=N)NCCc1ccccc1 [Phenformin] (partner 250 µM),relative viability,HOP-62; first compound 5 µM,0.67
same,relative viability,HOP-62; first compound 15.81 µM,0.632
same,relative viability,HOP-62; first compound 50 µM,0.62
same,relative viability,HOP-62; first compound 158.11 µM,0.437
same,relative viability,HOP-62; first compound 500 µM,0.204
same,relative viability,CAL-12T; first compound 5 µM,0.538
same,relative viability,CAL-12T; first compound 15.81 µM,0.546
same,relative viability,CAL-12T; first compound 50 µM,0.464
same,relative viability,CAL-12T; first compound 158.11 µM,0.0459
same,relative viability,CAL-12T; first compound 500 µM,0.0085
same,relative viability,NCI-H1755; first compound 5 µM,0.608
same,relative viability,NCI-H1755; first compound 15.81 µM,0.642
same,relative viability,NCI-H1755; first compound 50 µM,0.558
same,relative viability,NCI-H1755; first compound 158.11 µM,0.533
same,relative viability,NCI-H1755; first compound 500 µM,0.183
same,relative viability,NCI-H1651; first compound 5 µM,0.326
same,relative viability,NCI-H1651; first compound 15.81 µM,0.316
same,relative viability,NCI-H1651; first compound 50 µM,0.303
same,relative viability,NCI-H1651; first compound 158.11 µM,0.166
same,relative viability,NCI-H1651; first compound 500 µM,0.126
same,relative viability,201T; first compound 5 µM,0.514
same,relative viability,201T; first compound 15.81 µM,0.432
same,relative viability,201T; first compound 50 µM,0.415
same,relative viability,201T; first compound 158.11 µM,0.36
same,relative viability,201T; first compound 500 µM,0.0726
same,relative viability,NCI-H2087; first compound 5 µM,0.387
same,relative viability,NCI-H2087; first compound 15.81 µM,0.438
same,relative viability,NCI-H2087; first compound 50 µM,0.379
same,relative viability,NCI-H2087; first compound 158.11 µM,0.129
same,relative viability,NCI-H2087; first compound 500 µM,0.0066
same,relative viability,EMC-BAC-2; first compound 5 µM,0.531
same,relative viability,EMC-BAC-2; first compound 15.81 µM,0.517
same,relative viability,EMC-BAC-2; first compound 50 µM,0.502
same,relative viability,EMC-BAC-2; first compound 158.11 µM,0.226
same,relative viability,EMC-BAC-2; first compound 500 µM,0.0232
same,relative viability,LK-2; first compound 5 µM,0.379
same,relative viability,LK-2; first compound 15.81 µM,0.32
same,relative viability,LK-2; first compound 50 µM,0.517
same,relative viability,LK-2; first compound 158.11 µM,0.346
same,relative viability,LK-2; first compound 500 µM,0.0954
same,relative viability,NCI-H3122; first compound 5 µM,0.387
same,relative viability,NCI-H3122; first compound 15.81 µM,0.364
same,relative viability,NCI-H3122; first compound 50 µM,0.339
same,relative viability,NCI-H3122; first compound 158.11 µM,0.17
same,relative viability,NCI-H3122; first compound 500 µM,0.0221
same,relative viability,NCI-H2126; first compound 5 µM,0.535
same,relative viability,NCI-H2126; first compound 15.81 µM,0.524
same,relative viability,NCI-H2126; first compound 50 µM,0.585
same,relative viability,NCI-H2126; first compound 158.11 µM,0.368
same,relative viability,NCI-H2126; first compound 500 µM,0.0437
same,relative viability,PC-14; first compound 5 µM,0.463
same,relative viability,PC-14; first compound 15.81 µM,0.458
same,relative viability,PC-14; first compound 50 µM,0.567
same,relative viability,PC-14; first compound 158.11 µM,0.386
same,relative viability,PC-14; first compound 500 µM,0.207
same,relative viability,LXF-289; first compound 5 µM,0.516
same,relative viability,LXF-289; first compound 15.81 µM,0.504
same,relative viability,LXF-289; first compound 50 µM,0.511
same,relative viability,LXF-289; first compound 158.11 µM,0.443
same,relative viability,LXF-289; first compound 500 µM,0.0481
same,relative viability,ABC-1; first compound 5 µM,0.22
same,relative viability,ABC-1; first compound 15.81 µM,0.211
same,relative viability,ABC-1; first compound 50 µM,0.247
same,relative viability,ABC-1; first compound 158.11 µM,0.146
same,relative viability,ABC-1; first compound 500 µM,0.192
same,relative viability,NCI-H647; first compound 5 µM,0.575
same,relative viability,NCI-H647; first compound 15.81 µM,0.408
same,relative viability,NCI-H647; first compound 50 µM,0.501
same,relative viability,NCI-H647; first compound 158.11 µM,0.108
same,relative viability,NCI-H647; first compound 500 µM,0.0098
same,relative viability,NCI-H1734; first compound 5 µM,0.389
same,relative viability,NCI-H1734; first compound 15.81 µM,0.322
same,relative viability,NCI-H1734; first compound 50 µM,0.348
same,relative viability,NCI-H1734; first compound 158.11 µM,0.219
same,relative viability,NCI-H1734; first compound 500 µM,0.0834
same,relative viability,NCI-H441; first compound 5 µM,0.885
same,relative viability,NCI-H441; first compound 15.81 µM,0.734
same,relative viability,NCI-H441; first compound 50 µM,0.79
same,relative viability,NCI-H441; first compound 158.11 µM,0.284
same,relative viability,NCI-H441; first compound 500 µM,0.0276
same,relative viability,NCI-H322M; first compound 5 µM,0.76
same,relative viability,NCI-H322M; first compound 15.81 µM,0.718
same,relative viability,NCI-H322M; first compound 50 µM,0.728
same,relative viability,NCI-H322M; first compound 158.11 µM,0.693
same,relative viability,NCI-H322M; first compound 500 µM,0.0264
same,relative viability,SK-MES-1; first compound 5 µM,0.642
same,relative viability,SK-MES-1; first compound 15.81 µM,0.623
same,relative viability,SK-MES-1; first compound 50 µM,0.599
same,relative viability,SK-MES-1; first compound 158.11 µM,0.147
same,relative viability,SK-MES-1; first compound 500 µM,0.0887
same,relative viability,H3255; first compound 5 µM,0.351
same,relative viability,H3255; first compound 15.81 µM,0.299
same,relative viability,H3255; first compound 50 µM,0.399
same,relative viability,H3255; first compound 500 µM,0.299
same,relative viability,ChaGo-K-1; first compound 5 µM,0.47
same,relative viability,ChaGo-K-1; first compound 15.81 µM,0.454
same,relative viability,ChaGo-K-1; first compound 50 µM,0.491
same,relative viability,ChaGo-K-1; first compound 158.11 µM,0.331
same,relative viability,ChaGo-K-1; first compound 500 µM,0.124
same,relative viability,NCI-H2009; first compound 5 µM,0.478
same,relative viability,NCI-H2009; first compound 15.81 µM,0.443
same,relative viability,NCI-H2009; first compound 50 µM,0.42
same,relative viability,NCI-H2009; first compound 158.11 µM,0.0548
same,relative viability,NCI-H2009; first compound 500 µM,0.0187
same,relative viability,NCI-H2170; first compound 5 µM,0.435
same,relative viability,NCI-H2170; first compound 15.81 µM,0.404
same,relative viability,NCI-H2170; first compound 50 µM,0.38
same,relative viability,NCI-H2170; first compound 158.11 µM,0.352
same,relative viability,NCI-H2170; first compound 500 µM,0.11
same,relative viability,NCI-H596; first compound 5 µM,0.64
same,relative viability,NCI-H596; first compound 15.81 µM,0.672
same,relative viability,NCI-H596; first compound 50 µM,0.812
same,relative viability,NCI-H596; first compound 158.11 µM,0.668
same,relative viability,NCI-H596; first compound 500 µM,0.0197
